Test results published in patent US20230117034A1, “PYRAZOLOTRIAZINES” (Bayer Aktiengesellschaft, priority 2019, published 2023).

How the values were obtained:
[1] = system: CAL-120, human breast adenocarcinoma cells; assay: Proliferation assay CAL-120 (crystal violet, 4 days); type: cell-based; settings: Homo sapiens, CAL-120, 96 h, CAL-120 cells, median, read-out: Prolif-CAL-120, IC50-[mol/l] (median)
Summary of the method: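 IC50 from a 4-parameter fit of crystal violet absorbance (595 nm), scaled between a day-0 plate (0%) and untreated wells (100%). Cells grown in 10% FCS medium were exposed to test substances at 0.01-10 µmol/L for 4 days, 0.1% DMSO final.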

[2] = target: T1, CDK12 (nuclear staining in CAL-120 cells) (Homo sapiens, UniProt Q9NYV4); assay: CDK12 nuclear protein level: immunofluorescence/high content analysis (CAL-120); type: cell-based; settings: for DC50: CAL-120 cells, 24 h, immunofluorescence, 50% reduction of nuclear CDK12 staining intensity, median, read-out: CDK12 degradation IF, DC50- [mol/l] (median); for (IC50 CDK12 high ATP) to (Degradation DC50 CDK12) ratio: ratio of IC50 CDK12 high ATP kinase assay to DC50 CDK12 degradation (IF, CAL-120)
T1 construct: endogenous in cells; host or cells: CAL-120 human breast cancer cells (DSMZ ACC 459)
Summary of the method: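 DC50 is the degrader concentration that halves nuclear CDK12 immunofluorescence relative to controls, measured by high-content imaging. CAL-120 cells were exposed to compound for 24 h at 37 °C before PFA fixation, and signal was normalized to DMSO and control wells.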

[3] = system: BRCA1 mRNA expression in MDA-MB-231 cells; assay: qRT-PCR assay: BRCA1 mRNA expression in MDA-MB-231; type: cell-based, human; settings: Homo sapiens, MDA-MB-231, Inhibition of BRCA1 mRNA expression in MDA-MB-231 cells; median; read-out: RTqPCR-MDA-MB-231, IC50, BRCA1 (median)
Summary of the method: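 Seed 200,000 cells/well; 24 h later add compound, continuous exposure 24 h; extract RNA, 600 ng to cDNA; RT-qPCR, normalised to GAPDH.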

T1 sequence (Q9NYV4 whole entry): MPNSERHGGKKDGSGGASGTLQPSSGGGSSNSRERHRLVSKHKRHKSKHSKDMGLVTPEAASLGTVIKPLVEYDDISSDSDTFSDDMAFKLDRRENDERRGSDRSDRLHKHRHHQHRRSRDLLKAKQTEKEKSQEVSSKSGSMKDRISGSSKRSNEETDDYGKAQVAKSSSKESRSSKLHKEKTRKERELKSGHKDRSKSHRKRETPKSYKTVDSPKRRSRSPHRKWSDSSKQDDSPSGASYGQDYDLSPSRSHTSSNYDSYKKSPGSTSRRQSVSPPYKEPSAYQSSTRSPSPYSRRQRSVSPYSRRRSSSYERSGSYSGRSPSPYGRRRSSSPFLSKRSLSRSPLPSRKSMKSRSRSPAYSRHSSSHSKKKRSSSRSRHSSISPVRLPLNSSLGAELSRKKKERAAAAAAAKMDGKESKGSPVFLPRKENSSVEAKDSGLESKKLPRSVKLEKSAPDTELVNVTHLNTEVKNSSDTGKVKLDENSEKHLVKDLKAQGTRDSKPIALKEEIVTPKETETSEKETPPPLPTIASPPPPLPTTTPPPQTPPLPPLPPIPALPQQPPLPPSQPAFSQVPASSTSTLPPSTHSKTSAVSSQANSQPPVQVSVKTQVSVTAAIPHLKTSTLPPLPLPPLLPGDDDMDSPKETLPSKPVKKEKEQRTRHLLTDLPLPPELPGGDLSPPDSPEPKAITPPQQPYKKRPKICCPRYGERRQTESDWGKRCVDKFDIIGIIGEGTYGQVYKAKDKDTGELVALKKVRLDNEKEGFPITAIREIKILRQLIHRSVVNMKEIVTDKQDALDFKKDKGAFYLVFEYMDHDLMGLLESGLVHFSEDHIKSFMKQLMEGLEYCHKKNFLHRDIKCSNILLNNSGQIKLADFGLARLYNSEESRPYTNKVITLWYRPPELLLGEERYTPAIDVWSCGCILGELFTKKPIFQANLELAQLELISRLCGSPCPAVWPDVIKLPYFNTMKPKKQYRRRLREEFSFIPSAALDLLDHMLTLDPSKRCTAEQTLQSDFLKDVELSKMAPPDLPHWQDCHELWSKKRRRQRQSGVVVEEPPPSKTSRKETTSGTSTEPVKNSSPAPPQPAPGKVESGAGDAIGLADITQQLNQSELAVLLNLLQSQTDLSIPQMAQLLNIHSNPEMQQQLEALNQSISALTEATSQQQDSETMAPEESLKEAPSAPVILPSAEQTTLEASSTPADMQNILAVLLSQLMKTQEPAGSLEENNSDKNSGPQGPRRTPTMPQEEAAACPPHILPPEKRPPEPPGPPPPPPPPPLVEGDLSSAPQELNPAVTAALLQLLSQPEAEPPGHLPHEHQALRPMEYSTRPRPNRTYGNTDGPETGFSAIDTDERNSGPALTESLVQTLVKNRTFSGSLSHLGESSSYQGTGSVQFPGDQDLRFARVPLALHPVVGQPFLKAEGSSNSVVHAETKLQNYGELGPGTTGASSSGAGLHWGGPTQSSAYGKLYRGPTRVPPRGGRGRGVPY
T1 sequence (O75909 whole entry partner): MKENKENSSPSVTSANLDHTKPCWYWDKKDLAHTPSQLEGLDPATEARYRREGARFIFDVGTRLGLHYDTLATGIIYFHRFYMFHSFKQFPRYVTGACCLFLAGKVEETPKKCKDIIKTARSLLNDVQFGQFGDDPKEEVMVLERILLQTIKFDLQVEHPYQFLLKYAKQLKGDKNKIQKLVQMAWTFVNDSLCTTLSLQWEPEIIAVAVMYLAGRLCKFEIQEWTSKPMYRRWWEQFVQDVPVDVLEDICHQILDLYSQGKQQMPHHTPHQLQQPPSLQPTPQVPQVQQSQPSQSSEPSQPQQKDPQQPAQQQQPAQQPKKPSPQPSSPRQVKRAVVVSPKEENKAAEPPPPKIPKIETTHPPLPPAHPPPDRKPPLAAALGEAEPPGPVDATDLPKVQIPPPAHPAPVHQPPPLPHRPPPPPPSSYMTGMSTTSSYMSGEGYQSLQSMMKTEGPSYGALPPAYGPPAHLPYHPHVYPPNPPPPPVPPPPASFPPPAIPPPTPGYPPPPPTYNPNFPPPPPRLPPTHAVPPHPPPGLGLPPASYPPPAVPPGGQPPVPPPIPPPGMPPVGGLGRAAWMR

Row | Structure (SMILES) | IC50 [1] | DC50 [2] | (IC50 CDK12 high ATP) to (Degradation DC50 CDK12) ratio [2] | IC50 [3]
1 | CN1CCCN(c2nc(NCc3nc4ccccc4[nH]3)n3ncc(Br)c3n2)CC1 [Example 390, N-[(1H-benzimidazol-2-yl)methyl]-8-bromo-2-(4-methyl-1,4-diazepan-1-yl)pyrazolo[1,5-a][1,3,5]triazin-4-amine] | 29.8 nM | 19.2 nM | >1041 | –
2 | Brc1cnn2c(NCc3nc4ccccc4[nH]3)nc(N3CC4CCC(C3)O4)nc12 [Example 351, N-[(1H-benzimidazol-2-yl)methyl]-8-bromo-2-(8-oxa-3-azabicyclo[3.2.1]octan-3-yl)pyrazolo[1,5-a][1,3,5]triazin-4-amine] | 38.4 nM | 24 nM | 390 | 61.6 nM
3 | Fc1cccc2[nH]c(CNc3nc(N4CCOCC4)nc4c(Cl)cnn34)nc12 [Example 361, 8-chloro-N-[(4-fluoro-1H-benzimidazol-2-yl)methyl]-2-(morpholin-4-yl)pyrazolo[1,5-a][1,3,5]triazin-4-amine] | 6.73 nM | 6.4 nM | 224 | 9.02 nM
4 | CN(CC(C)(C)O)c1nc(NCc2nc3cc(C(F)(F)F)ccc3[nH]2)n2ncc(C3CC3)c2n1 [Example 323, 1-{[8-cyclopropyl-4-({[5-(trifluoromethyl)-1H-benzimidazol-2-yl]methyl}amino)pyrazolo[1,5-a][1,3,5]triazin-2-yl](methyl)amino}-2-methylpropan-2-ol] | 5.4 nM | 16.9 nM | 169 | 16.9 nM
5 | FC(F)(F)Oc1cccc2[nH]c(CNc3nc(N4C[C@H]5CC[C@@H](C4)N5)nc4c(Br)cnn34)nc12 [Example 381, 8-bromo-2-[(1R,5S)-3,8-diazabicyclo[3.2.1]octan-3-yl]-N-{[4-(trifluoromethoxy)-1H-benzimidazol-2-yl]methyl}pyrazolo[1,5-a][1,3,5]triazin-4-amine] | 30.8 nM | 22.2 nM | 266 | –
6 | CN(CC(C)(C)O)c1nc(NCc2nc3c(F)cccc3[nH]2)n2ncc(Cl)c2n1 [Example 366, 1-[(8-chloro-4-{[(4-fluoro-1H-benzimidazol-2-yl)methyl]amino}pyrazolo[1,5-a][1,3,5]triazin-2-yl)(methyl)amino]-2-methylpropan-2-ol] | 31.3 nM | 9.52 nM | 190 | 27.1 nM
7 | CN(c1nc(NCc2nc3ccccc3[nH]2)n2ncc(Br)c2n1)[C@H]1C[C@@H](O)C1 [Example 364, cis-3-[(4-{[(1H-benzimidazol-2-yl)methyl]amino}-8-bromopyrazolo[1,5-a][1,3,5]triazin-2-yl)(methyl)amino]cyclobutan-1-ol] | – | 3.81 nM | 1751 | 9.75 nM
8 | CCNc1nc(NCc2nc(-c3ccc(C)cc3)c[nH]2)n2ncc(Br)c2n1 [Example 26, 8-bromo-N^2-ethyl-N^4-{[4-(4-methylphenyl)-1H-imidazol-2-yl]methyl}pyrazolo[1,5-a][1,3,5]triazine-2,4-diamine] | – | 58.4 nM | 55 | 74.4 nM
9 | CN(CC(C)(C)O)c1nc(NCc2nc3cc(OC(F)(F)F)ccc3[nH]2)n2ncc(Br)c2n1 [Example 378, 1-{[8-bromo-4-({[5-(trifluoromethoxy)-1H-benzimidazol-2-yl]methyl}amino)pyrazolo[1,5-a][1,3,5]triazin-2-yl](methyl)amino}-2-methylpropan-2-ol] | 41.5 nM | 29.1 nM | 15 | –
10 | CN1CCC(Oc2nc(NCc3nc4ccccc4[nH]3)n3ncc(Br)c3n2)CC1 [Example 389, N-[(1H-benzimidazol-2-yl)methyl]-8-bromo-2-[(1-methylpiperidin-4-yl)oxy]pyrazolo[1,5-a][1,3,5]triazin-4-amine] | 52.7 nM | 33.5 nM | >597 | –
11 | CC[C@@H](CO)Nc1nc(NCc2nc3ccccc3[nH]2)n2ncc(Br)c2n1 [Example 367, (2S)-2-[(4-{[(1H-benzimidazol-2-yl)methyl]amino}-8-bromopyrazolo[1,5-a][1,3,5]triazin-2-yl)amino]butan-1-ol] | 31.4 nM | 12.7 nM | 231 | –
12 | Cc1ccnc2[nH]c(CNc3nc(N4CCN(C)CC4)nc4c(C(C)C)cnn34)nc12 [Example 32, N-[(7-methyl-3H-imidazo[4,5-b]pyridin-2-yl)methyl]-2-(4-methylpiperazin-1-yl)-8-(propan-2-yl)pyrazolo[1,5-a][1,3,5]triazin-4-amine] | – | 7.21 nM | 2565 | –
13 | CN(c1nc(NCc2nc3ccccc3[nH]2)n2ncc(Br)c2n1)[C@H]1C[C@H](O)C1 [Example 365, trans-3-[(4-{[(1H-benzimidazol-2-yl)methyl]amino}-8-bromopyrazolo[1,5-a][1,3,5]triazin-2-yl)(methyl)amino]cyclobutan-1-ol] | 70.2 nM | 23.6 nM | 247 | –
14 | CC[C@H](COC)Nc1nc(NCc2nc3ccccc3[nH]2)n2ncc(Br)c2n1 [Example 369, N4-[(1H-benzimidazol-2-yl)methyl]-8-bromo-N2-[(2R)-1-methoxybutan-2-yl]pyrazolo[1,5-a][1,3,5]triazine-2,4-diamine] | 140 nM | 20.6 nM | >970 | –
15 | CC[C@H](CO)Nc1nc(NCc2nc3ccccc3[nH]2)n2ncc(Br)c2n1 [Example 368, (2R)-2-[(4-{[(1H-benzimidazol-2-yl)methyl]amino}-8-bromopyrazolo[1,5-a][1,3,5]triazin-2-yl)amino]butan-1-ol] | 94.9 nM | 9.39 nM | 516 | –
16 | CN1CCN(c2nc(NCc3nc4cc(OC(F)(F)F)ccc4[nH]3)n3ncc(Br)c3n2)CC1 [Example 377, 8-bromo-2-(4-methylpiperazin-1-yl)-N-{[5-(trifluoromethoxy)-1H-benzimidazol-2-yl]methyl}pyrazolo[1,5-a][1,3,5]triazin-4-amine] | 79.3 nM | 20.2 nM | 252 | –
17 | FC(F)(F)Oc1cccc2[nH]c(CNc3nc(N4CCOCC4)nc4c(Br)cnn34)nc12 [Example 375, 8-bromo-2-(morpholin-4-yl)-N-{[4-(trifluoromethoxy)-1H-benzimidazol-2-yl]methyl}pyrazolo[1,5-a][1,3,5]triazin-4-amine] | 68.6 nM | 58.1 nM | 79 | –
18 | CN1CCN(c2nc(NCc3nc4c(OC(F)(F)F)cccc4[nH]3)n3ncc(Br)c3n2)CC1 [Example 376, 8-bromo-2-(4-methylpiperazin-1-yl)-N-{[4-(trifluoromethoxy)-1H-benzimidazol-2-yl]methyl}pyrazolo[1,5-a][1,3,5]triazin-4-amine] | 36.8 nM | 12.4 nM | >1615 | –
